Laboratory results as given in patent US20230085307A1, “PYRIDAZINONE COMPOUND AND HERBICIDE” (NISSAN CHEMICAL CORPORATION, priority 2019, published 2023).

tested on: oval-leafed pondweed; assay: Test Example 1: herbicidal activity, application before weed generation under submerged conditions (Table 16, symbol C); type: in vivo, oval-leafed pondweed (Monochoria vaginalis); details: amount of applied herbicide 320 g/ha
How it was run: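 Alluvial soil was flooded to 4 cm depth, weed seeds were sown mixed and 2.5-leaf rice seedlings were transplanted. On sowing day, the compound's emulsion, diluted in water to a set dose, was applied to the water surface. Plants grew at 25–30 °C and were scored 0–5 after three weeks.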

SMILES	Herbicidal effect, C: oval-leafed pondweed
COc1ccccc1-c1sc2cc(F)ccc2c1-c1c(OS(=O)(=O)N(C)C)c(C)nn(C)c1=O [3-028]	0 (Herbicidal rate of 5% or less (almost no effect))
CCCC(=O)Oc1c(C)nn(C)c(=O)c1-c1c(-c2ccc(Cl)cc2)sc2cc(Cl)ccc12 [3-034]	3 (Herbicidal rate of 40% or more and less than 70%)
CCOc1ccccc1-c1sc2cc(Cl)ccc2c1-c1c(O)c(C)nn(C)c1=O [3-039]	0 (Herbicidal rate of 5% or less (almost no effect))

tested on: Japanese bulrush; assay: Test Example 2: herbicidal activity, application during weed generation under submerged conditions (Table 17, symbol B); type: in vivo, Japanese bulrush (Schoenoplectus juncoides); details: AAH 320 g/ha; application during weed generation, submerged conditions
How it was run: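 Mixed weed seedlings in alluvial soil under a 4 cm water layer, greenhouse-grown at 25–30° C. Compound given as a diluted emulsion into the floodwater at the 1–2 leaf stage; response graded after three weeks.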

SMILES	herbicidal effect rating, B: Japanese bulrush
COc1ccccc1-c1sc2cc(F)ccc2c1-c1c(OS(=O)(=O)N(C)C)c(C)nn(C)c1=O [3-028]	0 (Herbicidal rate of 5% or less (almost no effect))
CCCC(=O)Oc1c(C)nn(C)c(=O)c1-c1c(-c2ccc(Cl)cc2)sc2cc(Cl)ccc12 [3-034]	0 (Herbicidal rate of 5% or less (almost no effect))
CCOc1ccccc1-c1sc2cc(Cl)ccc2c1-c1c(O)c(C)nn(C)c1=O [3-039]	2 (Herbicidal rate of 20% or more and less than 40%)

tested on: Chinese sprangletop; assay: Test Example 3: herbicidal effect by foliage application, Wagner pot (Table 18, symbol D); type: in vivo, chinese sprangletop (Leptochloa chinensis); details: 320 g/ha
How it was run: (§1)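 Plants were sown in alluvial soil held under 0.1–0.5 cm standing water and grown 14 days in a greenhouse at 25–30 °C. An emulsifiable formulation, water-diluted to the set dose, was then sprayed onto the foliage, and effects were scored three weeks later using previously defined criteria.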

SMILES	herbicidal effect on Chinese sprangletop (D)
CCCC(=O)Oc1c(C)nn(C)c(=O)c1-c1c(-c2ccc(Cl)cc2)sc2cc(Cl)ccc12 [3-034]	4 (Herbicidal rate of 70% or more and less than 90%)
CCOc1ccccc1-c1sc2cc(Cl)ccc2c1-c1c(O)c(C)nn(C)c1=O [3-039]	3 (Herbicidal rate of 40% or more and less than 70%)

same assay, conditions: amount of applied herbicide 320 g/ha

SMILES	herbicidal effect on D: Chinese sprangletop
COc1ccccc1-c1sc2cc(F)ccc2c1-c1c(OS(=O)(=O)N(C)C)c(C)nn(C)c1=O [3-028]	3 (Herbicidal rate of 40% or more and less than 70%)

tested on: rice flat sedge; assay: Test Example 3: herbicidal effect by foliage application, Wagner pot (Table 18, symbol E); type: in vivo, rice flat sedge (Cyperus iria); details: 320 g/ha
How it was run: as §1

SMILES	herbicidal effect on rice flat sedge (E)
CCCC(=O)Oc1c(C)nn(C)c(=O)c1-c1c(-c2ccc(Cl)cc2)sc2cc(Cl)ccc12 [3-034]	5 (Herbicidal rate of 90% or more (almost completely withered))
CCOc1ccccc1-c1sc2cc(Cl)ccc2c1-c1c(O)c(C)nn(C)c1=O [3-039]	5 (Herbicidal rate of 90% or more (almost completely withered))

same assay, conditions: amount of applied herbicide 320 g/ha

SMILES	herbicidal effect on E: rice flat sedge
COc1ccccc1-c1sc2cc(F)ccc2c1-c1c(OS(=O)(=O)N(C)C)c(C)nn(C)c1=O [3-028]	5 (Herbicidal rate of 90% or more (almost completely withered))

tested on: green foxtail; assay: Test Example 4: herbicidal effect by soil treatment (Table 19, symbol G); type: in vivo, green foxtail (Setaria viridis); details: amount of applied herbicide 320 g/ha
How it was run: (§2)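 Step 1: sow seeds in sterilized diluvial soil, cover ~1.5 cm. Step 2: spray diluted emulsion onto soil surface at predetermined rate. Step 3: greenhouse, 25–30° C, three weeks. Step 4: grade effect on each plant by earlier criteria.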

SMILES	G: green foxtail, herbicidal effect grade
COc1ccccc1-c1sc2cc(F)ccc2c1-c1c(OS(=O)(=O)N(C)C)c(C)nn(C)c1=O [3-028]	0 (Herbicidal rate of 5% or less (almost no effect))
CCCC(=O)Oc1c(C)nn(C)c(=O)c1-c1c(-c2ccc(Cl)cc2)sc2cc(Cl)ccc12 [3-034]	0 (Herbicidal rate of 5% or less (almost no effect))
CCOc1ccccc1-c1sc2cc(Cl)ccc2c1-c1c(O)c(C)nn(C)c1=O [3-039]	4 (Herbicidal rate of 70% or more and less than 90%)

tested on: wild oat; assay: Test Example 4: herbicidal effect by soil treatment (Table 19, symbol I); type: in vivo, wild oat (Avena fatua); details: amount of applied herbicide 320 g/ha
How it was run: as §2

SMILES	I: wild oat, herbicidal effect grade
COc1ccccc1-c1sc2cc(F)ccc2c1-c1c(OS(=O)(=O)N(C)C)c(C)nn(C)c1=O [3-028]	0 (Herbicidal rate of 5% or less (almost no effect))
CCCC(=O)Oc1c(C)nn(C)c(=O)c1-c1c(-c2ccc(Cl)cc2)sc2cc(Cl)ccc12 [3-034]	0 (Herbicidal rate of 5% or less (almost no effect))
CCOc1ccccc1-c1sc2cc(Cl)ccc2c1-c1c(O)c(C)nn(C)c1=O [3-039]	0 (Herbicidal rate of 5% or less (almost no effect))

tested on: Italian ryegrass; assay: Test Example 4: herbicidal effect by soil treatment (Table 19, symbol K); type: in vivo, Italian ryegrass (Lolium multiflorum); details: amount of applied herbicide 320 g/ha
How it was run: as §2

SMILES	K: Italian ryegrass, herbicidal effect grade
COc1ccccc1-c1sc2cc(F)ccc2c1-c1c(OS(=O)(=O)N(C)C)c(C)nn(C)c1=O [3-028]	0 (Herbicidal rate of 5% or less (almost no effect))
CCCC(=O)Oc1c(C)nn(C)c(=O)c1-c1c(-c2ccc(Cl)cc2)sc2cc(Cl)ccc12 [3-034]	1 (Herbicidal rate of 5% or more and less than 20%)
CCOc1ccccc1-c1sc2cc(Cl)ccc2c1-c1c(O)c(C)nn(C)c1=O [3-039]	0 (Herbicidal rate of 5% or less (almost no effect))

tested on: windgrass; assay: Test Example 4: herbicidal effect by soil treatment (Table 19, symbol L); type: in vivo, windgrass (Apera spica-venti); details: amount of applied herbicide 320 g/ha
How it was run: as §2

SMILES	L: windgrass, herbicidal effect grade
COc1ccccc1-c1sc2cc(F)ccc2c1-c1c(OS(=O)(=O)N(C)C)c(C)nn(C)c1=O [3-028]	3 (Herbicidal rate of 40% or more and less than 70%)
CCCC(=O)Oc1c(C)nn(C)c(=O)c1-c1c(-c2ccc(Cl)cc2)sc2cc(Cl)ccc12 [3-034]	0 (Herbicidal rate of 5% or less (almost no effect))
CCOc1ccccc1-c1sc2cc(Cl)ccc2c1-c1c(O)c(C)nn(C)c1=O [3-039]	0 (Herbicidal rate of 5% or less (almost no effect))

tested on: velvetleaf; assay: Test Example 4: herbicidal effect by soil treatment (Table 19, symbol M); type: in vivo, velvetleaf (Abutilon theophrasti); details: amount of applied herbicide 320 g/ha
How it was run: as §2

SMILES	M: velvetleaf, herbicidal effect grade
COc1ccccc1-c1sc2cc(F)ccc2c1-c1c(OS(=O)(=O)N(C)C)c(C)nn(C)c1=O [3-028]	0 (Herbicidal rate of 5% or less (almost no effect))
CCCC(=O)Oc1c(C)nn(C)c(=O)c1-c1c(-c2ccc(Cl)cc2)sc2cc(Cl)ccc12 [3-034]	3 (Herbicidal rate of 40% or more and less than 70%)
CCOc1ccccc1-c1sc2cc(Cl)ccc2c1-c1c(O)c(C)nn(C)c1=O [3-039]	3 (Herbicidal rate of 40% or more and less than 70%)

tested on: redroot pigweed; assay: Test Example 4: herbicidal effect by soil treatment (Table 19, symbol N); type: in vivo, redroot pigweed (Amaranthus retroflexus); details: amount of applied herbicide 320 g/ha
How it was run: as §2

SMILES	N: redroot pigweed, herbicidal effect grade
COc1ccccc1-c1sc2cc(F)ccc2c1-c1c(OS(=O)(=O)N(C)C)c(C)nn(C)c1=O [3-028]	0 (Herbicidal rate of 5% or less (almost no effect))
CCCC(=O)Oc1c(C)nn(C)c(=O)c1-c1c(-c2ccc(Cl)cc2)sc2cc(Cl)ccc12 [3-034]	3 (Herbicidal rate of 40% or more and less than 70%)
CCOc1ccccc1-c1sc2cc(Cl)ccc2c1-c1c(O)c(C)nn(C)c1=O [3-039]	4 (Herbicidal rate of 70% or more and less than 90%)

tested on: lambsquarters; assay: Test Example 4: herbicidal effect by soil treatment (Table 19, symbol O); type: in vivo, lambsquarters (Chenopodium album); details: amount of applied herbicide 320 g/ha
How it was run: as §2

SMILES	O: lambsquarters, herbicidal effect grade
COc1ccccc1-c1sc2cc(F)ccc2c1-c1c(OS(=O)(=O)N(C)C)c(C)nn(C)c1=O [3-028]	0 (Herbicidal rate of 5% or less (almost no effect))
CCCC(=O)Oc1c(C)nn(C)c(=O)c1-c1c(-c2ccc(Cl)cc2)sc2cc(Cl)ccc12 [3-034]	0 (Herbicidal rate of 5% or less (almost no effect))
CCOc1ccccc1-c1sc2cc(Cl)ccc2c1-c1c(O)c(C)nn(C)c1=O [3-039]	3 (Herbicidal rate of 40% or more and less than 70%)

tested on: persian speedwell; assay: Test Example 4: herbicidal effect by soil treatment (Table 19, symbol R); type: in vivo, Persian speedwell (Veronica persica); details: amount of applied herbicide 320 g/ha
How it was run: as §2

SMILES	R: persian speedwell, herbicidal effect grade
COc1ccccc1-c1sc2cc(F)ccc2c1-c1c(OS(=O)(=O)N(C)C)c(C)nn(C)c1=O [3-028]	0 (Herbicidal rate of 5% or less (almost no effect))
CCCC(=O)Oc1c(C)nn(C)c(=O)c1-c1c(-c2ccc(Cl)cc2)sc2cc(Cl)ccc12 [3-034]	4 (Herbicidal rate of 70% or more and less than 90%)
CCOc1ccccc1-c1sc2cc(Cl)ccc2c1-c1c(O)c(C)nn(C)c1=O [3-039]	5 (Herbicidal rate of 90% or more (almost completely withered))

tested on: barnyard grass; assay: Test Example 5: herbicidal effect by foliage application, plastic box (Table 20, symbol H); type: in vivo, barnyard grass (Echinochloa crus-galli); details: foliage application, 320 g/ha, three weeks after application
How it was run: (§3)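 Foliar spray test: emulsion formulation diluted in water to a set application rate, sprayed onto 14-day-old plants raised in diluvial soil at 25° C to 30° C under glass. Both herbicidal effect and crop effect rated visually three weeks later.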

SMILES	H: barnyard grass, herbicidal effect grade
COc1ccccc1-c1sc2cc(F)ccc2c1-c1c(OS(=O)(=O)N(C)C)c(C)nn(C)c1=O [3-028]	2 (Herbicidal rate of 20% or more and less than 40%)
CCCC(=O)Oc1c(C)nn(C)c(=O)c1-c1c(-c2ccc(Cl)cc2)sc2cc(Cl)ccc12 [3-034]	3 (Herbicidal rate of 40% or more and less than 70%)
CCOc1ccccc1-c1sc2cc(Cl)ccc2c1-c1c(O)c(C)nn(C)c1=O [3-039]	5 (Herbicidal rate of 90% or more (almost completely withered))

tested on: blackgrass; assay: Test Example 5: herbicidal effect by foliage application, plastic box (Table 20, symbol J); type: in vivo, blackgrass (Alopecurus myosuroides); details: foliage application, 320 g/ha, three weeks after application
How it was run: as §3

SMILES	J: blackgrass, herbicidal effect grade
COc1ccccc1-c1sc2cc(F)ccc2c1-c1c(OS(=O)(=O)N(C)C)c(C)nn(C)c1=O [3-028]	4 (Herbicidal rate of 70% or more and less than 90%)
CCCC(=O)Oc1c(C)nn(C)c(=O)c1-c1c(-c2ccc(Cl)cc2)sc2cc(Cl)ccc12 [3-034]	4 (Herbicidal rate of 70% or more and less than 90%)
CCOc1ccccc1-c1sc2cc(Cl)ccc2c1-c1c(O)c(C)nn(C)c1=O [3-039]	4 (Herbicidal rate of 70% or more and less than 90%)

tested on: Italian ryegrass; assay: Test Example 5: herbicidal effect by foliage application, plastic box (Table 20, symbol K); type: in vivo, Italian ryegrass (Lolium multiflorum); details: foliage application, 320 g/ha, three weeks after application
How it was run: as §3

SMILES	K: Italian ryegrass, herbicidal effect grade
COc1ccccc1-c1sc2cc(F)ccc2c1-c1c(OS(=O)(=O)N(C)C)c(C)nn(C)c1=O [3-028]	4 (Herbicidal rate of 70% or more and less than 90%)
CCCC(=O)Oc1c(C)nn(C)c(=O)c1-c1c(-c2ccc(Cl)cc2)sc2cc(Cl)ccc12 [3-034]	4 (Herbicidal rate of 70% or more and less than 90%)
CCOc1ccccc1-c1sc2cc(Cl)ccc2c1-c1c(O)c(C)nn(C)c1=O [3-039]	4 (Herbicidal rate of 70% or more and less than 90%)

tested on: velvetleaf; assay: Test Example 5: herbicidal effect by foliage application, plastic box (Table 20, symbol M); type: in vivo, velvetleaf (Abutilon theophrasti); details: foliage application, 320 g/ha, three weeks after application
How it was run: as §3

SMILES	M: velvetleaf, herbicidal effect grade
COc1ccccc1-c1sc2cc(F)ccc2c1-c1c(OS(=O)(=O)N(C)C)c(C)nn(C)c1=O [3-028]	4 (Herbicidal rate of 70% or more and less than 90%)
CCCC(=O)Oc1c(C)nn(C)c(=O)c1-c1c(-c2ccc(Cl)cc2)sc2cc(Cl)ccc12 [3-034]	4 (Herbicidal rate of 70% or more and less than 90%)
CCOc1ccccc1-c1sc2cc(Cl)ccc2c1-c1c(O)c(C)nn(C)c1=O [3-039]	5 (Herbicidal rate of 90% or more (almost completely withered))

tested on: chickweed; assay: Test Example 5: herbicidal effect by foliage application, plastic box (Table 20, symbol P); type: in vivo, common chickweed (Stellaria media); details: foliage application, 320 g/ha, three weeks after application
How it was run: as §3

SMILES	P: chickweed, herbicidal effect grade
COc1ccccc1-c1sc2cc(F)ccc2c1-c1c(OS(=O)(=O)N(C)C)c(C)nn(C)c1=O [3-028]	5 (Herbicidal rate of 90% or more (almost completely withered))
CCCC(=O)Oc1c(C)nn(C)c(=O)c1-c1c(-c2ccc(Cl)cc2)sc2cc(Cl)ccc12 [3-034]	5 (Herbicidal rate of 90% or more (almost completely withered))
CCOc1ccccc1-c1sc2cc(Cl)ccc2c1-c1c(O)c(C)nn(C)c1=O [3-039]	5 (Herbicidal rate of 90% or more (almost completely withered))
